Data reported in PubChem BioAssay AID2060486 (Molecular Pharmacology Branch, DTP, NCI, 2025).
pIC50: −log10 of the molar value.

Tested on: IGROV1 complex spheroids (HUVEC, MSC), viability % test/control
Assay: Anticancer human tumor IGROV1 cell line growth inhibition [GQUAD];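 also: spheroids exposed to compounds for 7 days before readout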;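 as to viability, T/C: 100% = DMSO vehicle control viability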
Settings: for pIC50: curve of first compound; for viability, T/C: stronger effect = lower value
In short: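 Tumor cells were grown as complex spheroids with HUVEC endothelial cells and mesenchymal stem cells as stroma. G-quadruplex stabilizers were combined with targeted agents over half-log dilutions from near the clinical Cmax, or from 10 microM.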

[1] = second compound 0.0316 µM, first compound 0.0316 µM
[2] = second compound 0.0316 µM, first compound 0.1 µM
[3] = second compound 0.0316 µM, first compound 0.316 µM
[4] = second compound 0.0316 µM, first compound 1 µM
[5] = second compound 0.0316 µM, first compound 3.16 µM
[6] = second compound 0.0316 µM, first compound 10 µM
[7] = second compound 0.1 µM, first compound 0.0316 µM
[8] = second compound 0.1 µM, first compound 0.1 µM
[9] = second compound 0.1 µM, first compound 0.316 µM
[10] = second compound 0.1 µM, first compound 1 µM
[11] = second compound 0.1 µM, first compound 3.16 µM
[12] = second compound 0.1 µM, first compound 10 µM
[13] = second compound 0.316 µM, first compound 0.0316 µM
[14] = second compound 0.316 µM, first compound 0.1 µM
[15] = second compound 0.316 µM, first compound 0.316 µM
[16] = second compound 0.316 µM, first compound 1 µM
[17] = second compound 0.316 µM, first compound 3.16 µM
[18] = second compound 0.316 µM, first compound 10 µM
[19] = second compound 1 µM, first compound 0.0316 µM
[20] = second compound 1 µM, first compound 0.1 µM
[21] = second compound 1 µM, first compound 0.316 µM
[22] = second compound 1 µM, first compound 1 µM
[23] = second compound 1 µM, first compound 3.16 µM
[24] = second compound 1 µM, first compound 10 µM
[25] = second compound 3.16 µM, first compound 0.0316 µM
[26] = second compound 3.16 µM, first compound 0.1 µM
[27] = second compound 3.16 µM, first compound 0.316 µM
[28] = second compound 3.16 µM, first compound 1 µM
[29] = second compound 3.16 µM, first compound 3.16 µM
[30] = second compound 3.16 µM, first compound 10 µM
[31] = second compound 10 µM, first compound 0.0316 µM
[32] = second compound 10 µM, first compound 0.1 µM
[33] = second compound 10 µM, first compound 0.316 µM
[34] = second compound 10 µM, first compound 1 µM
[35] = second compound 10 µM, first compound 3.16 µM
[36] = second compound 10 µM, first compound 10 µM

For `COc1cccc2c1C(=O)c1c(O)c3c(c(O)c1C2=O)CC(O)(C(=O)CO)CC3OC1CC(N)C(O)C(C)O1` (stereo unspecified) + Cc1cnc(CNC(=O)c2c(=O)c3ccc(N4CCCN(C)CC4)nc3n3c2sc2ccccc23)cn1, the pIC50 (second compound 0.0316 µM) was > 7.50, the pIC50 (second compound 0.1 µM) was > 7.50 and the pIC50 (second compound 0.316 µM) was > 7.50. The pIC50 (second compound 1 µM) was > 7.50, the pIC50 (second compound 3.16 µM) was > 7.50 and the pIC50 (second compound 10 µM) was > 7.50. It also gave a viability, T/C [1] of 40.4%, a viability, T/C [2] of 21.2% and a viability, T/C [3] of 7.47%. For the same compound, the viability, T/C [4] was 4.08%, the viability, T/C [5] was 0.07% and the viability, T/C [6] was 0.9%. It also gave a viability, T/C [7] of 29.5%, a viability, T/C [8] of 15.3% and a viability, T/C [9] of 9.07%. For the same compound, the viability, T/C [10] was 3.71%, the viability, T/C [11] was 0.05% and the viability, T/C [12] was 0.74%. The viability, T/C [13] was 18.7%, the viability, T/C [14] was 14.9% and the viability, T/C [15] was 7.44%. The viability, T/C [16] was 3.57%, the viability, T/C [17] was 0.07% and the viability, T/C [18] was 0.73%. For the same compound, the viability, T/C [19] was 11.8%, the viability, T/C [20] was 9.55% and the viability, T/C [21] was 7.95%. For the same compound, the viability, T/C [22] was 3.7%, the viability, T/C [23] was 0.05% and the viability, T/C [24] was 0.66%. For the same compound, the viability, T/C [25] was 10.9%, the viability, T/C [26] was 9.14% and the viability, T/C [27] was 6.91%. For the same compound, the viability, T/C [28] was 2.27%, the viability, T/C [29] was 0.07% and the viability, T/C [30] was 0.41%. It also gave a viability, T/C [31] of 11.1%, a viability, T/C [32] of 8.57% and a viability, T/C [33] of 5.52%. For the same compound, the viability, T/C [34] was 1.8%, the viability, T/C [35] was 0.14% and the viability, T/C [36] was 0.45%.
For `Nc1ccn(C2OC(CO)C(O)C2(F)F)c(=O)n1` (stereo unspecified) + Cc1cnc(CNC(=O)c2c(=O)c3ccc(N4CCCN(C)CC4)nc3n3c2sc2ccccc23)cn1, the pIC50 (second compound 0.0316 µM) was > 7.50, the pIC50 (second compound 0.1 µM) was > 7.50 and the pIC50 (second compound 0.316 µM) was > 7.50. For the same compound, the pIC50 (second compound 1 µM) was > 7.50, the pIC50 (second compound 3.16 µM) was > 7.50 and the pIC50 (second compound 10 µM) was > 7.50. For the same compound, the viability, T/C [1] was 10.5%, the viability, T/C [2] was 5.6% and the viability, T/C [3] was 5.15%. For the same compound, the viability, T/C [4] was 4.7%, the viability, T/C [5] was 4.99% and the viability, T/C [6] was 4.44%. It also gave a viability, T/C [7] of 12.7%, a viability, T/C [8] of 4.99% and a viability, T/C [9] of 8.19%. The viability, T/C [10] was 6.35%, the viability, T/C [11] was 5.18% and the viability, T/C [12] was 3.96%. For the same compound, the viability, T/C [13] was 11.5%, the viability, T/C [14] was 5.16% and the viability, T/C [15] was 5.92%. It also gave a viability, T/C [16] of 5.56%, a viability, T/C [17] of 4.85% and a viability, T/C [18] of 4.62%. The viability, T/C [19] was 11.1%, the viability, T/C [20] was 7% and the viability, T/C [21] was 6.75%. The viability, T/C [22] was 6.61%, the viability, T/C [23] was 4.42% and the viability, T/C [24] was 4.28%. It also gave a viability, T/C [25] of 6.61%, a viability, T/C [26] of 7.28% and a viability, T/C [27] of 6.54%. It also gave a viability, T/C [28] of 5.77%, a viability, T/C [29] of 5.25% and a viability, T/C [30] of 3.96%. For the same compound, the viability, T/C [31] was 9.97%, the viability, T/C [32] was 6.38% and the viability, T/C [33] was 5.25%. For the same compound, the viability, T/C [34] was 7.22%, the viability, T/C [35] was 5.43% and the viability, T/C [36] was 3.66%.
`O=c1[nH]cc(F)c(=O)[nH]1` + Cc1cnc(CNC(=O)c2c(=O)c3ccc(N4CCCN(C)CC4)nc3n3c2sc2ccccc23)cn1 was tested, and the pIC50 (second compound 0.0316 µM) was 5.34, the pIC50 (second compound 0.1 µM) was > 7.50 and the pIC50 (second compound 0.316 µM) was > 7.50. For the same compound, the pIC50 (second compound 1 µM) was > 7.50, the pIC50 (second compound 3.16 µM) was > 7.50 and the pIC50 (second compound 10 µM) was > 7.50. The viability, T/C [1] was 69.8%, the viability, T/C [2] was 66.3% and the viability, T/C [3] was 51.5%. For the same compound, the viability, T/C [4] was 66.9%, the viability, T/C [5] was 63.7% and the viability, T/C [6] was 20.2%. For the same compound, the viability, T/C [7] was 39.9%, the viability, T/C [8] was 38.9% and the viability, T/C [9] was 41.9%. It also gave a viability, T/C [10] of 36.1%, a viability, T/C [11] of 35.7% and a viability, T/C [12] of 17.7%. The viability, T/C [13] was 27.9%, the viability, T/C [14] was 23.6% and the viability, T/C [15] was 29.5%. For the same compound, the viability, T/C [16] was 25.2%, the viability, T/C [17] was 25.8% and the viability, T/C [18] was 15.1%. The viability, T/C [19] was 15.6%, the viability, T/C [20] was 15.3% and the viability, T/C [21] was 17.3%. The viability, T/C [22] was 19%, the viability, T/C [23] was 20.4% and the viability, T/C [24] was 9.16%. For the same compound, the viability, T/C [25] was 11.3%, the viability, T/C [26] was 15.5% and the viability, T/C [27] was 14.1%. It also gave a viability, T/C [28] of 9.51%, a viability, T/C [29] of 12.9% and a viability, T/C [30] of 7.27%. The viability, T/C [31] was 11.2%, the viability, T/C [32] was 8.66% and the viability, T/C [33] was 10.8%. The viability, T/C [34] was 9.81%, the viability, T/C [35] was 9.32% and the viability, T/C [36] was 5.96%.
